Results reported in article PMC6008493, “Thioamide substitution to probe the hydroxyproline recognition of VHL ligands” (Bioorganic & Medicinal Chemistry, 2018).
Read-outs that look alike come from different tables or passages of the source.

Experiments:
[1] = Quantification of ligand trans and cis isomers in solution by NMR; type: physicochemical; conditions: free ligand in solution
Text: We next evaluated the impact of thioamide substitutions to the n → π^∗ interaction in the ligand free state in solution. This interaction is only possible when the Hyp (thio)amide group is in the trans isomer conformation (Fig. 1A). Thus, the ratio between the trans and cis isomers at equilibrium can be used to infer the strength of the n → π^∗ interaction.[13]
Quantification of ligands trans and cis isomers in solution.

[2] = target: T1, VBC protein (VHL, elongin B, elongin C) (Homo sapiens, UniProt P40337); experiment: Competitive fluorescence polarization (FP) binding assay displacing FAM-labelled HIF-1α peptide
T1 construct: made in house
Protocol: Control wells contained VBC and peptide in the absence of compound (maximum signal), and peptide in the absence of protein (background signal). Data were obtained in triplicate and the percentage of displacement was determined and graphed against log[VHL inhibitors]. Average IC50 values and the standard error of the mean (SEM) were determined for each titration using Prism 6. Dissociation constants Kd were back-calculated from the measured IC50 values using a displacement binding model, as described previously.^6

[3] = target: VBC complex (VHL, elongin B, elongin C) (Homo sapiens, UniProt P40337); experiment: Isothermal titration calorimetry (ITC) direct titration; conditions: for ΔH: ITC enthalpy of binding; for ΔH / Kd: 25°C; for Kd: read-out: Kd ITC, pH 7, 3% DMSO
[4] = back-calculated from measured IC50, 15 nM VBC, 10 nM FAM-HIF-1α peptide, pH 7, read-out: Kd FP
[5] = relative to unmodified ligand 1

Compound | trans:cis (%) - cis isomer [1] [%] | trans:cis (%) - trans isomer [1] [%] | Kd [2, 4] [µM] | loss in binding affinity by FP [2, 5] | ΔH [3] [kcal/mol] | Kd [3] [µM] | loss in binding affinity by ITC [3, 5] | Kd ([2]; text summary of FP and ITC, read-out: Kd) [µM]
CC(=O)N[C@@H](C)C(=O)N1C[C@H](O)C[C@H]1C(=S)NCc1ccc(-c2scnc2C)cc1 [compound 2, N-((S)-1-((2S,4R)-4-Hydroxy-2-((4-(4-methylthiazol-5-yl)benzyl)carbamothioyl)pyrrolidin-1-yl)-1-oxopropan-2-yl)acetamide] | 11 | 89 | – | – | – | – | – | –
CC(=O)N[C@@H](C)C(=S)N1C[C@H](O)C[C@H]1C(=O)NCc1ccc(-c2scnc2C)cc1 [compound 3, (2S,4R)-1-((S)-2-Acetamidopropanethioyl)-4-hydroxy-N-(4-(4-methylthiazol-5-yl)benzyl)pyrrolidine-2-carboxamide] | 6 | 94 | 1 ± 0.4 | twofold | -6.79 ± 0.01 | 0.76 ± 0.02 | twofold | –
CC(=O)N[C@@H](C)C(=O)N1C[C@H](O)C[C@H]1C(=O)NCc1ccc(-c2scnc2C)cc1 [compound 1] | 8 | 92 | – | – | – | – | – | –
CC(=O)N[C@@H](C)C(=S)N1C[C@H](O)C[C@H]1C(=S)NCc1ccc(-c2scnc2C)cc1 [compound 4, N-((S)-1-((2S,4R)-4-hydroxy-2-((4-(4-methylthiazol-5-yl)benzyl)carbamothioyl)pyrrolidin-1-yl)-1-thioxopropan-2-yl)acetamide] | 10 | 90 | > 13 | – | -2.56 ± 0.01 | 21.6 ± 0.8 | – | > 10
